Columns and labels:
Assay type in all cases: cell-based, human
[1] = test system: RTKs; assay: Phospho-RTK array; conditions: 1.3 nM rhHGF or 32 nM aMD4dY-PA22, 10 min
Experimental: Ligand specificity against RTKs was evaluated using the Proteome Profiler Human Phospho-RTK Array Kit (R&D Systems). Confluent HEK293 cells in a 10 cm cell culture dish were starved in DMEM supplemented with 0.5% FBS and penicillin-streptomycin for 24 h. The starved cells were stimulated by 1.3 nM rhHGF or 32 nM aMD4dY-PA22 for 10 min, rinsed once with PBS, and lysed with 1 mL of lysis buffer 17 (R&D Systems) supplemented with a protease inhibitor cocktail (Nacalai Tesque). Lysates were analyzed using the Proteome Profiler Human Phospho-RTK Array Kit (R&D Systems) according to the manufacturer’s instructions. Chemiluminescence was detected using the Molecular Imager ChemiDoc XRS System (Bio-Rad Laboratories).

[2] = test system: HuCCT1 cells; assay: Proliferation assay, HuCCT1 cells; conditions: 5 days, 0.44 nM rhHGF or […] aMD4dY-PA22; for Relative cell growth: normalized by mock
Experimental: The activity of aMD4dY-PA22 against HuCCT1 cell and BM-hMSC proliferation was evaluated. HuCCT1 cells at a density of 5000 cells/well were seeded on a 24-well cell culture plate with RPMI 1640 medium supplemented with 5% FBS with or without 0.44 nM rhHGF or 6.3 nM aMD4dY-PA22. After 5 days of culture in 5% CO2 at 37 °C, the cells were detached by 0.25% trypsin/ethylenediaminetetraacetic acid (EDTA; Thermo Fisher Scientific) and counted using a Countess automated cell counter (Thermo Fisher Scientific).

[3] = test system: BM-hMSCs; assay: Proliferation assay, BM-hMSCs (WST-8); conditions: 3 days, 1.3 nM rhHGF or 32 nM aMD4dY-PA22; for WST-8 absorbance, Normalized: normalized by mock
Experimental: BM-hMSC cells at a density of 2500 cells/well were seeded on a 96-well cell culture plate with DMEM supplemented with 10% FBS with or without 1.3 nM rhHGF or 32 nM aMD4dY-PA22. After 3 days of culture in 5% CO2 at 37 °C, Cell Counting Reagent SF (Dojindo Laboratories, Japan) was added to the cells. After 1 h incubation, cell numbers were quantified by detection of absorbance at 450 nm using the Benchmark Plus plate reader (Bio-Rad Laboratories, Hercules, CA, USA).

[4] = test system: HuCCT1 cells; assay: Migration assay (Transwell); conditions: 24 h, 1.3 nM rhHGF or 32 nM aMD4dY-PA22; for Relative migration: standardized by mock
Experimental: HuCCT1 cells at a density of 20,000 cells/well in RPMI 1640 medium supplemented with 0.5% FBS were added to 24-well Transwell inserts. In the lower layer, RPMI 1640 supplemented with 0.5% FBS with or without 1.3 nM rhHGF or 32 nM aMD4dY-PA22 was added. The cells were incubated for 24 h in 5% CO2 at 37 °C. The Transwell inserts were washed thrice with PBS, stained with 0.5% crystal violet (Nacalai Tesque)/methanol for 10 min, and washed with distilled water. Images of migrated cells were captured using BZ-X fluorescence microscopy (Keyence Corporation, Osaka, Japan), and cell migration levels were quantified by stained areas of the Transwell inserts.

[5] = test system: HuCCT1 cells; assay: Scratch assay (wound healing); conditions: for wound healing compared with no stimulation: 0.41 nM rhHGF or 16 nM aMD4dY-PA22; for Closure rate / Wound closure: 1 to 7 h, 0.41 nM HGF or 16 nM aMD4dY-PA22
Experimental: HuCCT1 cells at a density of 50,000 cells/well in RPMI 1640 medium supplemented with 10% FBS were added to a 96-well cell culture plate and incubated overnight in 5% CO2 at 37 °C to form cellular monolayers. The centers of the cellular monolayers were scratched with 1000 μL micropipette tips and incubated in RPMI 1640 medium supplemented with 0.5% FBS with or without 0.41 nM HGF or 16 nM aMD4dY-PA22 in 5% CO2 at 37 °C. Images of the cells were captured every hour using BioStudio-T (Nikon, Tokyo, Japan). The average wound healing rate was calculated as [(width of the wound 1 h after scratching) − (width of the wound […])]/6.

[6] = test system: HuCCT1 cells; assay: Branching morphogenesis in collagen gel; conditions: 7 days; 0.44 nM rhHGF or […] aMD4dY-PA22
Experimental: HuCCT1 cells at a density of 20,000 cells/well were mixed with 400 μL of ice-cold collagen-containing culture medium (DMEM/Nutrient Mixture F-12, CellMatrix type IA [Nitta Gelatin Inc., Osaka, Japan], 2.2 g/L of sodium bicarbonate, 4.77 g/L of 4-(2-hydroxyethyl)-1-piperazineethanesulfonic acid [HEPES], and 0.005 N sodium hydroxide) and incubated in a 48-well cell culture plate in 5% CO2 at 37 °C for gelation. The cells encapsulated in the collagen gel were cultured with 500 μL of RPMI 1640 medium supplemented with 10% FBS with or without 0.44 nM HGF or 6.3 nM aMD4dY-PA22 in 5% CO2 at 37 °C. The culture medium was changed every 3 days. At day 7, the cells were observed by inverted microscopy.

[7] = test system: BM-hMSCs; assay: Cytokine array of conditioned media; conditions: 3 days
Experimental: The conditioned media (supernatant) of BM-hMSCs unstimulated or stimulated with 1.3 nM rhHGF or 32 nM aMD4dY-PA22 for 3 days were filtered using Millex-GV 0.22 µm PVDF membrane filter (Millipore) and analyzed using Human Cytokine Array C5 (Ray Biotech) according to the manufacturer’s instructions. Chemiluminescence was detected using Amersham Imager 600 (Cytiva).

[8] = test system: hPBMCs; assay: Colony-forming assay; conditions: sheet Fig. 4, Fig. 4b
Experimental: Next, 1.1 mL of the mixture was seeded in a 6-well cell culture plate and cultured for 13 days in 5% CO2 at 37 °C. At day 13, colony numbers were counted, and images were taken by inverted microscopy and BZ-X fluorescence microscopy.

| Substance | selectivity against RTKs [1] | proliferation compared to the unstimulated condition [2] | Relative cell growth ([2]; N 1) | Relative cell growth ([2]; N 2) | Relative cell growth ([2]; N 3) | growth of BM-hMSCs [3] | WST-8 absorbance, Normalized ([3]; N 1) | WST-8 absorbance, Normalized ([3]; N 2) | WST-8 absorbance, Normalized ([3]; N 3) | migration [4] | Stained area ([4]; n1) [μm^2] | Stained/Total ([4]; n1) | Stained area ([4]; n2) [μm^2] | Stained/Total ([4]; n2) | Relative migration ([4]; n1) | Relative migration ([4]; n2) | wound healing compared with no stimulation [5] [fold] | Closure rate ([5]; replicate 1) [μm/h] | Wound closure ([5]; replicate 1) [μm] | Closure rate ([5]; replicate 2) [μm/h] | other results |
| --- | --- | --- | --- | --- | --- | --- | --- | --- | --- | --- | --- | --- | --- | --- | --- | --- | --- | --- | --- | --- | --- |
| AET - CRQFNRRTHEVWNLDCG - AAPAAPA PAAPAAPA PAAPAA PG - CRQFNRRTHEVWNLDC (bicyclic or more) [aMD4dY-PA22, HGF mimetic STaMPtide, two aMD4dY macrocycles with a 22-amino-acid PA linker, secreted by C. glutamicum] | highly Met-selective | twofold | 2.429 | 2.429 | 2.571 | slightly promoted proliferation | 1.155 | 1.175 | 1.237 | promoted migration of HuCCT1 cells | 1905662 | 0.07439 | 1256153 | 0.04693 | 4.415 | 2.785 | 1.8 | 104.419 | 626.514 | 110.38 | Wound closure ([5]; replicate 2): 662.279 μm; Closure rate ([5]; replicate 3): 95.5447 μm/h; Wound closure ([5]; replicate 3): 573.268 μm; Closure rate ([5]; replicate 4): 95.787 μm/h; Wound closure ([5]; replicate 4): 574.722 μm; branching morphology [6]: showed branched tubular structures; cytokines and growth factors in conditioned supernatant [7]: to the same extent as unstimulated parental BM-hMSCs; Colony number ([8]; N 1): 104.419; Colony number ([8]; N 2): 110.38; Colony number ([8]; N 3): 95.5447; Colony number ([8]; N 4): 95.787 |
| rhHGF: recombinant human HGF (R&D Systems) | highly Met-selective | twofold | 2.286 | 2.429 | 2.071 | slightly promoted proliferation | 1.1816 | 1.335 | 1.247 | promoted migration of HuCCT1 cells | 1050763 | 0.03941 | 1394072 | 0.04835 | 2.3393 | 2.87 | 1.6 | 88.8457 | 533.074 | 100.748 | Wound closure ([5]; replicate 2): 604.487 μm; Closure rate ([5]; replicate 3): 98.5177 μm/h; Wound closure ([5]; replicate 3): 591.106 μm; Closure rate ([5]; replicate 4): 94.0632 μm/h; Wound closure ([5]; replicate 4): 564.379 μm; branching morphology [6]: showed branched tubular structures; cytokines and growth factors in conditioned supernatant [7]: to the same extent as unstimulated parental BM-hMSCs; Colony number ([8]; N 1): 88.8457; Colony number ([8]; N 2): 100.748; Colony number ([8]; N 3): 98.5177; Colony number ([8]; N 4): 94.0632 |

From paper PMC8760323, “Single-chain tandem macrocyclic peptides as a scaffold for growth factor and cytokine mimetics” (Communications Biology, 2022)
